Experimental data from patent publication US11524938B2, “Aromatic sulfonamide derivatives” (Bayer Pharma Aktiengesellschaft, priority 2016, dated 2022).

Target: T1, human P2X4 (Homo sapiens, UniProt Q99571)
T1 sequence (Q99571 1-388): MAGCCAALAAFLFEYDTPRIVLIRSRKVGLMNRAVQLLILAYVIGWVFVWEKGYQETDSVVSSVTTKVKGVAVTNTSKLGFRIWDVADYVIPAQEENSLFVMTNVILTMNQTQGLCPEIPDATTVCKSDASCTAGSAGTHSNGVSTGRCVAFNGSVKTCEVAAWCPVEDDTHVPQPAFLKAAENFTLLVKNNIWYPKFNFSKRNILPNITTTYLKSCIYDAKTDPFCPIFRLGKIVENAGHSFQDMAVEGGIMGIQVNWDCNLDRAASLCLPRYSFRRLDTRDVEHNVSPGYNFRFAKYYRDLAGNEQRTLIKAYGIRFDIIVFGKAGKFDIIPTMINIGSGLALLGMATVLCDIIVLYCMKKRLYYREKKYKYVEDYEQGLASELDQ
Experiment: Human P2X4 HEK Cell FLIPR Assay
Type: cell-based
Conditions: agonist Bz-ATP at EC80; for Emax: HEK293, HEK293 cells, percentage of maximal inhibition, read-out: Human P2X4 HEK Cells (FLIPR Assay) avg Efficacy [%]; for IC50: HEK293 cells, individual values listed where some fall outside detection range
How it was run: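 HEK293 cells stably expressing human P2X4, Fluo8-AM loaded 30 min at 37° C, then compound 30 min at room temperature (0.5% DMSO, pH 7.4 buffer with 1.8 mM CaCl2). Bz-ATP at its daily-determined EC80 added; calcium fluorescence read over 120 sec; IC50 from peak RFU normalized to agonist control, triplicates.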

Row | SMILES | Emax [%] | IC50 [nM]
1 | Cn1cc(-c2ccc(NC(=O)Cc3ccccc3Cl)cc2S(N)(=O)=O)c(C(F)(F)F)n1 [Example 355, 2-(2-Chlorophenyl)-N-{4-[1-methyl-3-(trifluoromethyl)-1H-pyrazol-4-yl]-3-sulfamoylphenyl}acetamide] | 76 | 62
2 | NS(=O)(=O)c1cc(NC(=O)Cc2ccccc2Cl)ccc1-c1cnn(CC2CC2(Cl)Cl)c1 (stereo not drawn) [Example 357, 2-(2-Chlorophenyl)-N-(4-{1-[(2,2-dichlorocyclopropyl)methyl]-1H-pyrazol-4-yl}-3-sulfamoylphenyl)acetamide] | 87 | 71
3 | Cc1nn(C)cc1-c1ccc(NC(=O)Cc2ccccc2Cl)cc1S(N)(=O)=O [Example 358, 2-(2-Chlorophenyl)-N-[4-(1,3-dimethyl-1H-pyrazol-4-yl)-3-sulfamoylphenyl]acetamide] | 88 | 74
4 | CC(C)n1cc(-c2ccc(NC(=O)Cc3ccccc3Cl)cc2S(N)(=O)=O)cn1 [Example 359, 2-(2-Chlorophenyl)-N-{4-[1-(propan-2-yl)-1H-pyrazol-4-yl]-3-sulfamoylphenyl}-acetamide] | 84 | 77
5 | CC(C)(C)C(O)Cn1cc(-c2ccc(NC(=O)Cc3ccccc3Cl)cc2S(N)(=O)=O)cn1 (stereo not drawn) [Example 361, 2-(2-Chlorophenyl)-N-{4-[1-(2-hydroxy-3,3-dimethylbutyl)-1H-pyrazol-4-yl]-3-sulfamoylphenyl}acetamide] | 83 | 97
6 | NS(=O)(=O)c1cc(NC(=O)Cc2ccccc2F)ccc1-c1cncc(F)c1 [Example 362, 2-(2-Fluorophenyl)-N-[4-(5-fluoropyridin-3-yl)-3-sulfamoylphenyl]acetamide] | 78 | 102
7 | Cc1c(-c2ccc(NC(=O)Cc3ccccc3Cl)cc2S(N)(=O)=O)cnn1-c1ccccc1 [Example 363, 2-(2-Chlorophenyl)-N-[4-(5-methyl-1-phenyl-1H-pyrazol-4-yl)-3-sulfamoylphenyl]-acetamide] | 110 | 108
8 | NS(=O)(=O)c1cc(NC(=O)Cc2ccccc2Cl)ccc1-c1cnn2cccnc12 [Example 365, 2-(2-Chlorophenyl)-N-[4-(pyrazolo[1,5-a]pyrimidin-3-yl)-3-sulfamoylphenyl]acetamide] | 89 | 113
9 | Cn1nc(C(F)(F)F)cc1-c1ccc(NC(=O)Cc2ccccc2F)cc1S(N)(=O)=O [Example 368, 2-(2-Fluorophenyl)-N-{4-[1-methyl-3-(trifluoromethyl)-1H-pyrazol-5-yl]-3-sulfamoylphenyl}acetamide] | 100 | 133
10 | COCCn1cc(-c2ccc(NC(=O)Cc3ccccc3F)cc2S(N)(=O)=O)cn1 [Example 369, 2-(2-Fluorophenyl)-N-{4-[1-(2-methoxyethyl)-1H-pyrazol-4-yl]-3-sulfamoylphenyl}acetamide] | 110 | 141
11 | NS(=O)(=O)c1cc(NC(=O)Cc2cc(Cl)ccc2F)ccc1-c1cnn(C2CC2)c1 [Example 371, 2-(5-Chloro-2-fluorophenyl)-N-[4-(1-cyclopropyl-1H-pyrazol-4-yl)-3-sulfamoylphenyl]acetamide] | 99 | 152
12 | NS(=O)(=O)c1cc(NC(=O)Cc2ccccc2Cl)ccc1-c1cnn(C2COC2)c1 [Example 373, 2-(2-Chlorophenyl)-N-{4-[1-(oxetan-3-yl)-1H-pyrazol-4-yl]-3-sulfamoylphenyl}-acetamide] | 89 | 167
13 | Cn1cc(-c2ccc(NC(=O)Cc3ccccc3F)cc2S(N)(=O)=O)cn1 [Example 374, 2-(2-Fluorophenyl)-N-[4-(1-methyl-1H-pyrazol-4-yl)-3-sulfamoylphenyl]acetamide] | 82 | 386
14 | Cc1nn(C)cc1-c1ccc(NC(=O)Cc2ccccc2F)cc1S(N)(=O)=O [Example 375, N-[4-(1,3-Dimethyl-1H-pyrazol-4-yl)-3-sulfamoylphenyl]-2-(2-fluorophenyl)acetamide] | 79 | 660
15 | NS(=O)(=O)c1cc(NC(=O)Cc2ccccc2F)ccc1-c1nnc(C2CC2)o1 [Example 376, N-[4-(5-Cyclopropyl-1,3,4-oxadiazol-2-yl)-3-sulfamoylphenyl]-2-(2-fluorophenyl)-acetamide] | 98 | 9
16 | NS(=O)(=O)c1cc(NC(=O)Cc2ccccc2Cl)ccc1-c1nnc(C2CC2)o1 [Example 377, 2-(2-Chlorophenyl)-N-[4-(5-cyclopropyl-1,3,4-oxadiazol-2-yl)-3-sulfamoylphenyl]-acetamide] | 80 | 27
17 | NS(=O)(=O)c1cc(NC(=O)Cc2ccccc2F)ccc1-n1cc(C(F)F)cn1 [Example 378, N-{4-[4-(Difluoromethyl)-1H-pyrazol-1-yl]-3-sulfamoylphenyl}-2-(2-fluorophenyl)acetamide] | 84 | 89
18 | NS(=O)(=O)c1cc(NC(=O)Cc2ccccc2Cl)ccc1-n1cc(C(F)F)cn1 [Example 379, 2-(2-Chlorophenyl)-N-{4-[4-(difluoromethyl)-1H-pyrazol-1-yl]-3-sulfamoylphenyl}acetamide] | 87 | 29

Second part, the compound after the results:

Row | Emax [%] | IC50 [nM] | SMILES
19 | 92 | 60 | NS(=O)(=O)c1cc(NC(=O)Cc2ccccc2Cl)ccc1-c1cccnc1 [Example 354, 2-(2-Chlorophenyl)-N-[4-(pyridin-3-yl)-3-sulfamoylphenyl]acetamide]
20 | 96 | 63 | NS(=O)(=O)c1cc(NC(=O)Cc2ccccc2Cl)ccc1-c1cccc(Cl)c1 [Example 356, 2-(2-Chlorophenyl)-N-(3′-chloro-2-sulfamoylbiphenyl-4-yl)acetamide]
21 | 93 | – | Cn1cc(-c2ccc(NC(=O)Cc3ccccc3Cl)cc2S(N)(=O)=O)cn1 [Example 360, 2-(2-Chlorophenyl)-N-[4-(1-methyl-1H-pyrazol-4-yl)-3-sulfamoylphenyl]acetamide]
22 | 77 | 715 | CN(C)CCNC(=O)c1cccc(-c2ccc(NC(=O)Cc3ccccc3Cl)cc2S(N)(=O)=O)c1 [Example 364, 4′-{[(2-Chlorophenyl)acetyl]amino}-N-[2-(dimethylamino)ethyl]-2′-sulfamoylbiphenyl-3-carboxamide]
23 | 97 | 128 | NS(=O)(=O)c1cc(NC(=O)Cc2ccccc2Cl)ccc1-c1cncc(C(=O)N2CCCC2)c1 [Example 366, 2-(2-Chlorophenyl)-N-{4-[5-(pyrrolidin-1-ylcarbonyl)pyridin-3-yl]-3-sulfamoylphenyl}acetamide]
24 | 83 | 131 | NS(=O)(=O)c1cc(NC(=O)Cc2ccccc2Cl)ccc1-c1cn[nH]c1 [Example 367, 2-(2-Chlorophenyl)-N-[4-(1H-pyrazol-4-yl)-3-sulfamoylphenyl]acetamide]
25 | 76 | 143 | CC(C)(O)Cn1cc(-c2ccc(NC(=O)Cc3ccccc3Cl)cc2S(N)(=O)=O)cn1 [Example 370, 2-(2-Chlorophenyl)-N-{4-[1-(2-hydroxy-2-methylpropyl)-1H-pyrazol-4-yl]-3-sulfamoylphenyl}acetamide]
26 | 83 | 166 | Cc1ccc(-c2ccc(NC(=O)Cc3ccccc3Cl)cc2S(N)(=O)=O)cn1 [Example 372, 2-(2-Chlorophenyl)-N-[4-(6-methylpyridin-3-yl)-3-sulfamoylphenyl]acetamide]
